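Dose response: 5 concentrations. Exposure: 48 h. Format: 96-well plates. Endpoint: linear interpolation; highest concentration if not reached. TGI denotes the concentration required for complete inhibition of growth.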
Columns and labels:
Assay in all cases: DTP human tumour cell line panel, 48 h
SK-MEL-28 melanoma = tested on: SK-MEL-28 melanoma
NCI-H522 lung = tested on: NCI-H522 lung
MDA-MB-435 = tested on: MDA-MB-435
A549 NSCLC = tested on: A549 NSCLC
HOP-92 NSCLC = tested on: HOP-92 NSCLC
HCT-116 colon = tested on: HCT-116 colon
OVCAR-8 ovarian = tested on: OVCAR-8 ovarian
RXF 393 renal = tested on: RXF 393 renal
OVCAR-5 ovarian = tested on: OVCAR-5 ovarian
SNB-75 CNS = tested on: SNB-75 CNS
ACHN renal = tested on: ACHN renal
SR leukemia = tested on: SR leukemia
NCI/ADR-RES ovarian = tested on: NCI/ADR-RES ovarian
SF-268 CNS = tested on: SF-268 CNS
CCRF-CEM leukemia = tested on: CCRF-CEM leukemia
HCT-15 colon = tested on: HCT-15 colon
MDA-MB-231 breast = tested on: MDA-MB-231 breast
NCI-H460 lung = tested on: NCI-H460 lung
U251 CNS = tested on: U251 CNS
HCC-2998 colon = tested on: HCC-2998 colon
SW-620 colon = tested on: SW-620 colon
SK-MEL-5 melanoma = tested on: SK-MEL-5 melanoma
MCF7 breast = tested on: MCF7 breast
RPMI-8226 leukemia = tested on: RPMI-8226 leukemia
786-0 renal = tested on: 786-0 renal
OVCAR-4 ovarian = tested on: OVCAR-4 ovarian
CAKI-1 renal = tested on: CAKI-1 renal
T-47D breast = tested on: T-47D breast
SF-539 CNS = tested on: SF-539 CNS
EKVX NSCLC = tested on: EKVX NSCLC
IGROV1 ovarian = tested on: IGROV1 ovarian
DU-145 prostate = tested on: DU-145 prostate
HL-60(TB) leukemia = tested on: HL-60(TB) leukemia
M14 melanoma = tested on: M14 melanoma
LOX IMVI melanoma = tested on: LOX IMVI melanoma
MDA-N = tested on: MDA-N
TK-10 renal = tested on: TK-10 renal
MOLT-4 leukemia = tested on: MOLT-4 leukemia
SF-295 CNS = tested on: SF-295 CNS
SNB-19 CNS = tested on: SNB-19 CNS
MALME-3M melanoma = tested on: MALME-3M melanoma
HT29 colon = tested on: HT29 colon
PC-3 prostate = tested on: PC-3 prostate
HS 578T breast = tested on: HS 578T breast
K-562 leukemia = tested on: K-562 leukemia
UACC-62 melanoma = tested on: UACC-62 melanoma
SK-OV-3 ovarian = tested on: SK-OV-3 ovarian
COLO 205 colon = tested on: COLO 205 colon
NCI-H226 lung = tested on: NCI-H226 lung
NCI-H23 lung = tested on: NCI-H23 lung
HOP-62 NSCLC = tested on: HOP-62 NSCLC
KM12 colon = tested on: KM12 colon
A498 renal = tested on: A498 renal
SK-MEL-2 melanoma = tested on: SK-MEL-2 melanoma
OVCAR-3 ovarian = tested on: OVCAR-3 ovarian
SN12C renal = tested on: SN12C renal
UACC-257 melanoma = tested on: UACC-257 melanoma

For COc1cc(Br)c(CC2C3=C(CCN2C(=O)C2CCC2)CC2(CC3)OCCO2)cc1O (centres undefined), the TGI (SK-MEL-28 melanoma) was greater than 100 µM, the TGI (NCI-H522 lung) was 98.4 µM and the TGI (MDA-MB-435) was 64 µM. The TGI (A549 NSCLC) was greater than 100 µM, the TGI (HOP-92 NSCLC) was greater than 100 µM and the TGI (HCT-116 colon) was greater than 100 µM. It also gave a TGI (OVCAR-8 ovarian) greater than 100 µM, a TGI (RXF 393 renal) of 44.4 µM and a TGI (OVCAR-5 ovarian) greater than 100 µM. For the same compound, the TGI (SNB-75 CNS) was 76.8 µM, the TGI (ACHN renal) was greater than 100 µM and the TGI (SR leukemia) was greater than 100 µM. The TGI (NCI/ADR-RES ovarian) was greater than 100 µM, the TGI (SF-268 CNS) was greater than 100 µM and the TGI (CCRF-CEM leukemia) was greater than 100 µM. The TGI (HCT-15 colon) was greater than 100 µM, the TGI (MDA-MB-231 breast) was greater than 100 µM and the TGI (NCI-H460 lung) was greater than 100 µM. The TGI (U251 CNS) was greater than 100 µM, the TGI (HCC-2998 colon) was greater than 100 µM and the TGI (SW-620 colon) was greater than 100 µM. The TGI (SK-MEL-5 melanoma) was greater than 100 µM, the TGI (MCF7 breast) was greater than 100 µM and the TGI (RPMI-8226 leukemia) was greater than 100 µM. It also gave a TGI (786-0 renal) greater than 100 µM, a TGI (OVCAR-4 ovarian) greater than 100 µM and a TGI (CAKI-1 renal) greater than 100 µM. It also gave a TGI (T-47D breast) greater than 100 µM, a TGI (SF-539 CNS) greater than 100 µM and a TGI (EKVX NSCLC) greater than 100 µM. For the same compound, the TGI (IGROV1 ovarian) was greater than 100 µM, the TGI (DU-145 prostate) was greater than 100 µM and the TGI (HL-60(TB) leukemia) was greater than 100 µM. The TGI (M14 melanoma) was greater than 100 µM, the TGI (LOX IMVI melanoma) was greater than 100 µM and the TGI (MDA-N) was greater than 100 µM. It also gave a TGI (TK-10 renal) greater than 100 µM, a TGI (MOLT-4 leukemia) greater than 100 µM and a TGI (SF-295 CNS) greater than 100 µM. For the same compound, the TGI (SNB-19 CNS) was greater than 100 µM, the TGI (MALME-3M melanoma) was greater than 100 µM and the TGI (HT29 colon) was 60.3 µM. The TGI (PC-3 prostate) was greater than 100 µM, the TGI (HS 578T breast) was greater than 100 µM and the TGI (K-562 leukemia) was greater than 100 µM. For the same compound, the TGI (UACC-62 melanoma) was greater than 100 µM, the TGI (SK-OV-3 ovarian) was greater than 100 µM and the TGI (COLO 205 colon) was 34.8 µM. For the same compound, the TGI (NCI-H226 lung) was greater than 100 µM, the TGI (NCI-H23 lung) was 79.7 µM and the TGI (HOP-62 NSCLC) was greater than 100 µM. It also gave a TGI (KM12 colon) greater than 100 µM, a TGI (A498 renal) greater than 100 µM and a TGI (SK-MEL-2 melanoma) greater than 100 µM. The TGI (OVCAR-3 ovarian) was greater than 100 µM, the TGI (SN12C renal) was greater than 100 µM and the TGI (UACC-257 melanoma) was greater than 100 µM.
With CCCCNC(=O)OCCN=C1c2ccccc2C(Br)C(Br)c2ccccc21 (centres undefined) the TGI (SK-MEL-28 melanoma) was greater than 100 µM, the TGI (NCI-H522 lung) was 73 µM and the TGI (MDA-MB-435) was 57 µM. The TGI (A549 NSCLC) was greater than 100 µM, the TGI (HOP-92 NSCLC) was 37.1 µM and the TGI (HCT-116 colon) was 60.5 µM. For the same compound, the TGI (OVCAR-8 ovarian) was 58.9 µM, the TGI (RXF 393 renal) was 34.8 µM and the TGI (OVCAR-5 ovarian) was greater than 100 µM. The TGI (SNB-75 CNS) was greater than 100 µM, the TGI (ACHN renal) was 62.4 µM and the TGI (SR leukemia) was greater than 100 µM. For the same compound, the TGI (NCI/ADR-RES ovarian) was 47.2 µM, the TGI (SF-268 CNS) was greater than 100 µM and the TGI (CCRF-CEM leukemia) was greater than 100 µM. It also gave a TGI (HCT-15 colon) of 38.2 µM, a TGI (MDA-MB-231 breast) greater than 100 µM and a TGI (NCI-H460 lung) greater than 100 µM. For the same compound, the TGI (U251 CNS) was 62.5 µM, the TGI (HCC-2998 colon) was greater than 100 µM and the TGI (SW-620 colon) was greater than 100 µM. For the same compound, the TGI (SK-MEL-5 melanoma) was 50.3 µM, the TGI (MCF7 breast) was greater than 100 µM and the TGI (RPMI-8226 leukemia) was 62.1 µM. The TGI (786-0 renal) was 28.3 µM, the TGI (OVCAR-4 ovarian) was 59.6 µM and the TGI (CAKI-1 renal) was 49.2 µM. The TGI (T-47D breast) was greater than 100 µM, the TGI (SF-539 CNS) was greater than 100 µM and the TGI (EKVX NSCLC) was greater than 100 µM. The TGI (IGROV1 ovarian) was greater than 100 µM, the TGI (DU-145 prostate) was greater than 100 µM and the TGI (HL-60(TB) leukemia) was 37.6 µM. For the same compound, the TGI (M14 melanoma) was 40.2 µM, the TGI (LOX IMVI melanoma) was 47.2 µM and the TGI (MDA-N) was 31.7 µM. The TGI (TK-10 renal) was 52.2 µM, the TGI (MOLT-4 leukemia) was 84.1 µM and the TGI (SF-295 CNS) was greater than 100 µM. It also gave a TGI (SNB-19 CNS) of 55.3 µM, a TGI (MALME-3M melanoma) of 52.9 µM and a TGI (HT29 colon) of 58.3 µM. The TGI (PC-3 prostate) was greater than 100 µM, the TGI (HS 578T breast) was greater than 100 µM and the TGI (K-562 leukemia) was greater than 100 µM. It also gave a TGI (UACC-62 melanoma) greater than 100 µM, a TGI (SK-OV-3 ovarian) greater than 100 µM and a TGI (COLO 205 colon) of 44.7 µM. The TGI (NCI-H226 lung) was greater than 100 µM, the TGI (NCI-H23 lung) was greater than 100 µM and the TGI (HOP-62 NSCLC) was greater than 100 µM. For the same compound, the TGI (KM12 colon) was greater than 100 µM, the TGI (A498 renal) was greater than 100 µM and the TGI (SK-MEL-2 melanoma) was greater than 100 µM. The TGI (OVCAR-3 ovarian) was 46.1 µM, the TGI (SN12C renal) was greater than 100 µM and the TGI (UACC-257 melanoma) was 76.2 µM.
